From patent US20250296988A1, “COMBINATION THERAPY” (ViiV Healthcare Company, priority 2020, published 2025)

Assays:
[1] = system: HIV-1NL4-3; assay: Two-drug combination anti-HIV cytoprotection assay in MT-4 cells (MTS endpoint, MacSynergy II analysis); format: cell-based
Procedure: Provided below is an evaluation of the anti-HIV-1 activity and cytotoxicity of N6LS in two drug combination studies with Cabotegravir. N6LS was produced using standard methods described in the art. Stock solutions were prepared as listed in Table 4 and were thawed at room temperature on each day of assay setup to generate fresh working drug dilutions that were used that day in the assays. Working dilutions were not stored for re-use in subsequent experiments performed on different days. For each combination assay, N6LS was evaluated using a 20 nM high-test concentration with seven additional serial half-log dilutions. Each dilution of N6LS was tested in combination with five dilutions of the anti-HIV drug, Cabotegravir. In all cases the final DMSO concentration was <0.25%, which has been previously shown to have no effect in the described assays.
For cell preparation, MT-4 cells (obtained from the NIH AIDS Research and Reference Reagent Program) were passaged in T-75 flasks prior to use in the antiviral assay. On the day preceding the assay, the cells were split 1:2 to assure they were in an exponential growth phase at the time of infection. Total cell and viability quantification were performed using a hemacytometer and trypan blue exclusion. Cell viability needed to be greater than 95% for the cells to be utilized in the assay. The cells were re-suspended in tissue culture medium and added to the drug-containing microtiter plates in a volume of 110 μL and at a seeding density of 5.0×10^3 cells/well.
For virus preparation, the virus used for these tests was the CXCR4-tropic virus strain HIV-1NL4-3. This virus was obtained from the NIH AIDS Research and Reference Reagent Program and was grown in MT-4 cells for the production of stock virus pools. For each assay, a pre-titered aliquot of virus was removed from the freezer (−80° C.) and allowed to thaw slowly to room temperature in a biological safety cabinet. The virus was re-suspended and diluted into tissue culture medium such that the amount of virus added to each well, in a volume of 50 μL, was the amount determined to give between 85 to 95% cell-killing at 6 days post infection.
For Plate Format, a checkerboard plate format was used to test five concentrations of Cabotegravir with eight concentrations of N6LS. Combination antiviral efficacy was evaluated on three identical assay plates (i.e., triplicate measurements) that included cell control wells (cells only) and virus control wells (cells plus virus). Combination cytotoxicity was evaluated in parallel on two identical assay plates (i.e., duplicate measurements) that included cell control wells. Antiviral efficacy and cellular toxicity were monitored by MTS staining at the experimental endpoint.
For MTS Endpoint for cell viability, at assay termination, the soluble tetrazolium-based dye MTS (CellTiter 96 Reagent, Promega) was added to each well to determine cell viability and quantify compound toxicity. MTS is metabolized by the mitochondria enzymes of metabolically active cells to yield a soluble formazan product, allowing the rapid quantitative analysis of cell viability and compound cytotoxicity. […] At termination of the assay, 20 μL of MTS reagent was added per well and the microtiter plates were then incubated for 3-4 hours at 37° C., 5% CO2 for the HIV cytoprotection assay; the incubation intervals were chosen based on empirically determined times for optimal MTS reduction. Adhesive plate sealers were used in place of the lids, the sealed plates were inverted several times to mix the soluble formazan product and the plates were read spectrophotometrically at 490/650 nm with a Molecular Devices SpectraMax i3 plate reader.
Combination antiviral assays were performed with MT-4 cells utilizing HIV-1NL4-3, as described above. For each combination assay, five concentrations of Cabotegravir were tested with eight concentrations of N6LS. […]

[2] = system: broad range of HIV-1 strains; settings: cited from earlier work
[3] = in combination with N6LS, 95% confidence values, experiment 1
[4] = in combination with N6LS, 95% confidence values, experiment 2
[5] = in combination with N6LS, 95% confidence values, experiment 3
[6] = in combination with N6LS, 95% confidence values, n = 3

C[C@H]1CO[C@@H]2Cn3cc(C(=O)NCc4ccc(F)cc4F)c(=O)c(O)c3C(=O)N12 [Cabotegravir, N-((2,4-Difluorophenyl)methyl)-6-hydroxy-3-methyl-5,7-dioxo-2,3,5,7,11,11a hexahydro (1,3) oxazolo (3,2-a)pyrido (1,2-d) pyrazine-8-carboxamide]
Drug-drug interaction of the combination ([1]; combination of N6LS with Cabotegravir): mainly synergistic or additive interactions | Antagonism Volume, Result 1 [1, 3]: −45.27 nM^2% | Synergy Volume, Result 1 [1, 3]: 2.32 nM^2% | Antagonism Volume, Result 2 [1, 4]: 0 nM^2% | Synergy Volume, Result 2 [1, 4]: 187.5 nM^2% | Antagonism Volume, Result 3 [1, 5]: −39.56 nM^2% | Synergy Volume, Result 3 [1, 5]: 61.7 nM^2% | Mean Antagonism Volume [1, 6]: −28.28 nM^2 | Mean Synergy Volume [1, 6]: 83.84 nM^2 | potency and antiviral activity [2]: subnanomolar potency
